Test results: patent publication US20230322846A9, “NEUROACTIVE STEROIDS AND THEIR METHODS OF USE” (SAGE THERAPEUTICS, INC., priority 2018, published 2023)

What follows are molecules tested against [35S]-TBPS binding, rat brain cortical membranes (assay: Steroid inhibition of [35S]-TBPS binding). Conditions: 3 nM [35S]-TBPS, in the presence of 5 mM GABA.
Method: [^35S]-t-Butylbicyclophosphorothionate (TBPS) binding assays using rat brain cortical membranes in the presence of 5 mM GABA has been described (Gee et al, J. Pharmacol. Exp. Ther. 1987, 241, 346-353; Hawkinson et al, Mol. Pharmacol. 1994, 46, 977-985; Lewin, A. H et al., Mol. Pharmacol. 1989, 35, 189-194).
Briefly, cortices are rapidly removed following decapitation of carbon dioxide-anesthetized Sprague-Dawley rats (200-250 g). The cortices are homogenized in 10 volumes of ice-cold 0.32 M sucrose using a glass/teflon homogenizer and centrifuged at 1500×g for 10 min at 4° C. The resultant supernatants are centrifuged at 10,000×g for 20 min at 4° C. to obtain the P2 pellets. The P2 pellets are resuspended in 200 mM NaCl/50 mM Na—K phosphate pH 7.4 buffer and centrifuged at 10,000×g for 10 min at 4° C. This washing procedure is repeated twice and the pellets are resuspended in 10 volumes of buffer. Aliquots ([…]) of the membrane suspensions are incubated with 3 nM [^35S]-TBPS and […] aliquots of test drug dissolved in dimethyl sulfoxide (DMSO) (final 0.5%) in the presence of 5 mM GABA. The incubation is brought to a final volume of 1.0 mL with buffer. Nonspecific binding is determined in the presence of […] and ranged from 15 to 25%. Following a 90 min incubation at room temp, the assays are terminated by filtration through glass fiber filters (Schleicher and Schuell No. 32) using a cell harvester (Brandel) and rinsed three times with ice-cold buffer. Filter bound radioactivity is measured by liquid scintillation spectrometry. Non-linear curve fitting of the overall data for each drug averaged for each concentration is done using Prism (GraphPad). […] The concentration of test compound producing 50% inhibition (IC50) of specific binding and the maximal extent of inhibition (Imax) are determined for the individual experiments with the same model used for the overall data and then the means±SEM.s of the individual experiments are calculated.
Various compounds are or can be screened to determine their potential as modulators of [^35S]-TBPS binding in vitro. These assays are or can be performed in accordance with the above
`CC[C@]12CC[C@@](C)(O)C[C@H]1CC[C@H]1[C@@H]3CC[C@H](C(C)Cn4cc(C#N)cn4)[C@@]3(C)CC[C@@H]12` (stereo in doubt) [Example 325, 1-((S)-2-((3R,5R,8S,9S,10S,13S,14S,17R)-10-ethyl-3-hydroxy-3,13-dimethylhexadecahydro-1H-cyclopenta[a]phenanthren-17-yl)propyl)-1H-pyrazole-4-carbonitrile] was tested, and the IC50 was < 100 nM.
For `CC[C@]12CC[C@@](C)(O)C[C@H]1CC[C@H]1[C@@H]3CC[C@H](C(C)Cn4cc(C#N)cn4)[C@@]3(C)CC[C@@H]12` (stereo in doubt) [Example 326, 1-((R)-2-((3R,5R,8S,9S,10S,13S,14S,17R)-10-ethyl-3-hydroxy-3,13-dimethylhexadecahydro-1H-cyclopenta[a]phenanthren-17-yl)propyl)-1H-pyrazole-4-carbonitrile], the IC50 was < 100 nM.
In the case of `CCC[C@@]1(O)CC[C@@]2(C)[C@H](CC[C@H]3[C@@H]4CC[C@H](C(C)Cn5cc(C#N)cn5)[C@@]4(C)CC(=O)[C@@H]32)C1` (stereo in doubt) [Example 340, 1-((R)-2-((3R,5R,8S,9S,10S,13S,14S,17R)-3-hydroxy-10,13-dimethyl-11-oxo-3-propylhexadecahydro-1H-cyclopenta[a]phenanthren-17-yl)propyl)-1H-pyrazole-4-carbonitrile], the IC50 is reported as < 100 nM.
`CCOC(=O)c1cnc(C[C@H](C)[C@H]2CC[C@H]3[C@@H]4CC[C@H]5C[C@](C)(O)CC[C@@H]5[C@H]4CC[C@]23C)o1` (stereo in doubt) [Example 455] was tested, and the IC50 was < 100 nM.
For `CCOC(=O)c1cnc(C[C@@H](C)[C@H]2CC[C@H]3[C@@H]4CC[C@@H]5C[C@](C)(O)CC[C@@H]5[C@H]4CC[C@]23C)o1` (stereo in doubt) [Example 456], the IC50 was 100 to 1000 nM.
Work on `C[C@@]1(O)CC[C@H]2[C@H](CC[C@@H]3[C@@H]2CC[C@]2(C)[C@@H](CN4CCCCC4=O)CC[C@@H]32)C1` [Example 1, 1-(((3R,5R,8R,9R,10S,13S,14S,17S)-3-hydroxy-3,13-dimethylhexadecahydro-1H-cyclopenta[a]phenanthren-17-yl)methyl)piperidin-2-one] yielded an IC50 of 1000 to 10000 nM.
In the case of `CN(C[C@H]1CC[C@H]2[C@@H]3CC[C@@H]4C[C@](C)(O)CC[C@@H]4[C@H]3CC[C@]12C)C(=O)c1ccccc1` [Example 2, N-(((3R,5R,8R,9R,10S,13S,14S,17S)-3-hydroxy-3,13-dimethylhexadecahydro-1H-cyclopenta[a]phenanthren-17-yl)methyl)-N-methylbenzamide], the IC50 is reported as 100 to 1000 nM.
In the case of `C[C@@]1(O)CC[C@H]2[C@H](CC[C@@H]3[C@@H]2CC[C@]2(C)[C@@H](CNC(=O)c4ccccc4)CC[C@@H]32)C1` [Example 3, N-(((3R,5R,8R,9R,10S,13S,14S,17S)-3-hydroxy-3,13-dimethylhexadecahydro-1H-cyclopenta[a]phenanthren-17-yl)methyl)benzamide], the IC50 is reported as < 100 nM.
With `CN(C[C@H]1CC[C@H]2[C@@H]3CC[C@@H]4C[C@](C)(O)CC[C@@H]4[C@H]3CC[C@]12C)S(=O)(=O)c1ccccc1` [Example 5, N-(((3R,5R,8R,9R,10S,13S,14S,17S)-3-hydroxy-3,13-dimethylhexadecahydro-1H-cyclopenta[a]phenanthren-17-yl)methyl)-N-methylbenzenesulfonamide] the IC50 was < 100 nM.
`C[C@H]1CCCC(=O)N1C[C@H]1CC[C@H]2[C@@H]3CC[C@@H]4C[C@](C)(O)CC[C@@H]4[C@H]3CC[C@]12C` [Example 6, (S)-1-(((3R,5R,8R,9R,10S,13S,14S,17S)-3-hydroxy-3,13-dimethylhexadecahydro-1H-cyclopenta[a]phenanthren-17-yl)methyl)-6-methylpiperidin-2-one] was tested, and the IC50 was 1000 to 10000 nM.
With `C[C@@H]1CCCC(=O)N1C[C@H]1CC[C@H]2[C@@H]3CC[C@@H]4C[C@](C)(O)CC[C@@H]4[C@H]3CC[C@]12C` [Example 7, (R)-1-(((3R,5R,8R,9R,10S,13S,14S,17S)-3-hydroxy-3,13-dimethylhexadecahydro-1H-cyclopenta[a]phenanthren-17-yl)methyl)-6-methylpiperidin-2-one] the IC50 was 1000 to 10000 nM.
For `C[C@@]1(O)CC[C@H]2[C@H](CC[C@@H]3[C@@H]2CC[C@]2(C)[C@@H](CNC(=O)Cc4ccccc4)CC[C@@H]32)C1` [Example 8, N-(((3R,5R,8R,9R,10S,13S,14S,17S)-3-hydroxy-3,13-dimethylhexadecahydro-1H-cyclopenta[a]phenanthren-17-yl)methyl)-2-phenylacetamide], the IC50 was < 100 nM.
Work on `C[C@@]1(O)CC[C@H]2[C@H](CC[C@@H]3[C@@H]2CC[C@]2(C)[C@@H](CN4C[C@@H](c5ccccc5)CC4=O)CC[C@@H]32)C1` [Example 9, (R)-1-(((3R,5R,8R,9R,10S,13S,14S,17S)-3-hydroxy-3,13-dimethylhexadecahydro-1H-cyclopenta[a]phenanthren-17-yl)methyl)-4-phenylpyrrolidin-2-one] yielded an IC50 of 100 to 1000 nM.
In the case of `C[C@@]1(O)CC[C@H]2[C@H](CC[C@@H]3[C@@H]2CC[C@]2(C)[C@@H](CN4C[C@H](c5ccccc5)CC4=O)CC[C@@H]32)C1` [Example 10, (S)-1-(((3R,5R,8R,9R,10S,13S,14S,17S)-3-hydroxy-3,13-dimethylhexadecahydro-1H-cyclopenta[a]phenanthren-17-yl)methyl)-4-phenylpyrrolidin-2-one], the IC50 is reported as 100 to 1000 nM.
In the case of `C[C@@]1(O)CC[C@H]2[C@H](CC[C@@H]3[C@@H]2CC[C@]2(C)[C@@H](CN4CC[C@@H](c5ccccc5)C4=O)CC[C@@H]32)C1` [Example 11, (S)-1-(((3R,5R,8R,9R,10S,13S,14S,17S)-3-hydroxy-3,13-dimethylhexadecahydro-1H-cyclopenta[a]phenanthren-17-yl)methyl)-3-phenylpyrrolidin-2-one], the IC50 is reported as 100 to 1000 nM.
For `C[C@@]1(O)CC[C@H]2[C@H](CC[C@@H]3[C@@H]2CC[C@]2(C)[C@@H](CN4CC[C@H](c5ccccc5)C4=O)CC[C@@H]32)C1` [Example 12, (R)-1-(((3R,5R,8R,9R,10S,13S,14S,17S)-3-hydroxy-3,13-dimethylhexadecahydro-1H-cyclopenta[a]phenanthren-17-yl)methyl)-3-phenylpyrrolidin-2-one], the IC50 was < 100 nM.
In the case of `C[C@@]1(O)CC[C@H]2[C@H](CC[C@@H]3[C@@H]2CC[C@]2(C)[C@@H](CN4C(=O)CCC[C@@H]4c4ccccc4)CC[C@@H]32)C1` [Example 13, (R)-1-(((3R,5R,8R,9R,10S,13S,14S,17S)-3-hydroxy-3,13-dimethylhexadecahydro-1H-cyclopenta[a]phenanthren-17-yl)methyl)-6-phenylpiperidin-2-one], the IC50 is reported as < 100 nM.
Molecule `C[C@@]1(O)CC[C@H]2[C@H](CC[C@@H]3[C@@H]2CC[C@]2(C)[C@@H](CN4C(=O)CCC[C@H]4c4ccccc4)CC[C@@H]32)C1` [Example 14, (S)-1-(((3R,5R,8R,9R,10S,13S,14S,17S)-3-hydroxy-3,13-dimethylhexadecahydro-1H-cyclopenta[a]phenanthren-17-yl)methyl)-6-phenylpiperidin-2-one] has an IC50 of 100 to 1000 nM.
In the case of `CCOC[C@@]1(O)CC[C@H]2[C@H](CC[C@@H]3[C@@H]2CC[C@]2(C)[C@@H](CNC(=O)c4ccccc4)CC[C@@H]32)C1` [Example 15, N-(((3R,5R,8R,9R,10S,13S,14S,17S)-3-(ethoxymethyl)-3-hydroxy-13-methylhexadecahydro-1H-cyclopenta[a]phenanthren-17-yl)methyl)benzamide], the IC50 is reported as < 100 nM.
For `COC[C@@]1(O)CC[C@H]2[C@H](CC[C@@H]3[C@@H]2CC[C@]2(C)[C@@H](CNC(=O)c4ccccc4)CC[C@@H]32)C1` [Example 16, N-(((3R,5R,8R,9R,10S,13S,14S,17S)-3-hydroxy-3-(methoxymethyl)-13-methylhexadecahydro-1H-cyclopenta[a]phenanthren-17-yl)methyl)benzamide], the IC50 was < 100 nM.
Work on `C[C@H](NS(=O)(=O)c1ccccc1)[C@H]1CC[C@H]2[C@@H]3CC[C@@H]4C[C@](C)(O)CC[C@@H]4[C@H]3CC[C@]12C` [Example 17, N—((S)-1-((3R,5R,8R,9R,10S,13S,14S,17S)-3-hydroxy-3,13-dimethylhexadecahydro-1H-cyclopenta[a]phenanthren-17-yl)ethyl)benzenesulfonamide] yielded an IC50 of 1000 to 10000 nM.
